Tested on: H1 human embryonic stem cells
Assay: Analog screening with GDF-8 and growth factor/agonist pool (Example 8, Tables 7 and 8)
Assay type: cell-based
Set-up: Cell Number, % of positive control / Sox17 Expression, % of positive control: tested at 2.5 µM
Outline: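 H1 hESC clusters, washed free of growth factors, fed on alternate days over 4 days with DMEM:F12, 0.5% FCS, 2.5 μM compound, 25 ng/ml GDF-8 plus a 50 ng/ml growth-factor pool. Fixed cells immunostained for SOX17 and imaged; total SOX17 intensity normalised to positive control.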

[1] = EGF, FGF, PDGF-A, VEGF, PDGF-D, muscimol, GDF8
[2] = Plate 2, compound + EGF, FGF, PDGF-A, VEGF, PDGF-D, muscimol, GDF8
[3] = Plate 2, compound + EGF, FGF, PDGF-A, VEGF, PDGF-D, muscimol, GDF8, positive control Activin A/Wnt3a
[4] = Plate 1, compound + EGF, FGF, PDGF-A, VEGF, PDGF-D, muscimol, GDF8
[5] = Plate 1, compound + EGF, FGF, PDGF-A, VEGF, PDGF-D, muscimol, GDF8, positive control Activin A/Wnt3a
[6] = Table 8: hits with greater than 25% activity of the positive control, with GDF-8 and growth factors/agonists

O=C1CCN2CCN(CC2)Cc2cccc(c2)Nc2ncnc(n2)-c2ccnc(c2)NCCCN1 [Compound 13, 1,8,10,12,17,19,23,27,33-Nonaazapentacyclo[25.2.2.1˜3,7˜0.1˜9.13˜1˜14.18˜]tetratriaconta-3(34), 4,6,9(33), 10,12,14(32), 15,17-nonaen-24-one]
Cell Number, % of positive control [1]: 52.6%
Cell Number, Average Total Cell Number [1]: 7045
Sox17 Expression, % of positive control [1]: 28.8%
Sox17 Expression, Average Total Intensity [1]: 7.22E+07
Cell Number, Average Total Cell Number [2]: 9123
Sox17 Expression, Average Total Intensity [2]: 1.13E+08
Cell Number, % of positive control [3]: 57.7 % of positive control
Sox17 Expression, % of positive control [3]: 39.7 % of positive control

CCN1CC(=O)NCCCc2cc(ccn2)-c2ncnc(n2)Nc2cc(Cl)cc(c2)C1 [Compound 14, 10-Chloro-14-ethyl-3,5,7,14,17,22,27-heptaazatetracyclo[19.3.1.1˜2,6˜1˜8,12˜]heptacosa-1(25), 2(27), 3,5,8(26), 9,11,21,23-nonaen-16-one]
Cell Number, % of positive control [1]: 53.5%
Cell Number, Average Total Cell Number [1]: 8464
Sox17 Expression, % of positive control [1]: 29.1%
Sox17 Expression, Average Total Intensity [1]: 8.33E+07
Cell Number, Average Total Cell Number [4]: 9344
Sox17 Expression, Average Total Intensity [4]: 1.23E+08
Cell Number, % of positive control [5]: 69.8 % of positive control
Sox17 Expression, % of positive control [5]: 49.0 % of positive control

CCN1CC(=O)NCCCc2cccc(c2)-c2ncnc(n2)Nc2cccc(c2)C1 [Compound 15, 14-Ethyl-3,5,7,14,17,27-hexaazatetracyclo[19.3.1.1˜2,6˜1-8.12˜]heptacosa-1(25), 2(27), 3,5,8(26), 9,11,21,23-nonaen-16-one]
Cell Number, % of positive control [1]: 45.8%
Cell Number, Average Total Cell Number [1]: 7234
Sox17 Expression, % of positive control [1]: 27.8%
Sox17 Expression, Average Total Intensity [1]: 7.95E+07
Cell Number, Average Total Cell Number [4]: 8448
Sox17 Expression, Average Total Intensity [4]: 8.64E+07
Cell Number, % of positive control [5]: 63.1 % of positive control
Sox17 Expression, % of positive control [5]: 34.5 % of positive control

O=C1NCCCc2cncc(c2)-c2ncnc(n2)Nc2cccc(c2)CN2CCCC1C2 (stereo not shown) [Compound 17, 3,5,7,14,20,26,31-Heptaazapentacyclo[22.3.1.1-2,6˜1˜8,12˜1˜14,18˜]hentriaconta-1(28), 2(31), 3,5,8(30), 9,11,24,26-nonaen-19-one]
Cell Number, % of positive control [1]: 59.6%
Cell Number, Average Total Cell Number [1]: 7988
Sox17 Expression, % of positive control [1]: 45.0%
Sox17 Expression, Average Total Intensity [1]: 1.13E+08

O=C1NCCCc2cncc(c2)-c2ncnc(n2)Nc2cccc(c2)CN2CCC[C@@H]12 [Compound 18, (18S)-3,5,7,14,20,26,30-Heptaazapentacyclo[22.3.1.1˜2,6˜1˜8,12˜0.0˜14,18˜]triaconta-1(28), 2(30), 3,5,8(29), 9,11,24,26-nonaen-19-one]
Cell Number, % of positive control [1]: 55.3%
Cell Number, Average Total Cell Number [1]: 8742
Sox17 Expression, % of positive control [1]: 35.4%
Sox17 Expression, Average Total Intensity [1]: 1.01E+08
Cell Number, Average Total Cell Number [4]: 13037
Sox17 Expression, Average Total Intensity [4]: 1.63E+08
Cell Number, % of positive control [5]: 97.3 % of positive control
Sox17 Expression, % of positive control [5]: 65.2 % of positive control

CN1CCC(=O)NCCCc2cncc(c2)-c2ncnc(n2)Nc2cccc(c2)C1 [Compound 19, 14-Methyl-3,5,7,14,18,24,28-heptaazatetracyclo[20.3.1.1˜2,6˜0.1˜8,12˜]octacosa-1(26), 2(28), 3,5,8(27), 9,11,22,24-nonaen-17-one]
Cell Number, % of positive control [1]: 58.2%
Cell Number, Average Total Cell Number [1]: 7799
Sox17 Expression, % of positive control [1]: 27.2%
Sox17 Expression, Average Total Intensity [1]: 6.82E+07
Cell Number, Average Total Cell Number [2]: 8425
Sox17 Expression, Average Total Intensity [2]: 1.19E+08
Cell Number, % of positive control [3]: 53.3 % of positive control
Sox17 Expression, % of positive control [3]: 41.6 % of positive control

CN1CCCC(=O)NCCCc2cncc(c2)-c2ncnc(n2)Nc2cccc(c2)C1 [Compound 20, 14-Methyl-3,5,7,14,19,25,29-heptaazatetracyclo[21.3.1.1˜2,6˜0.1˜8,12˜]nonacosa-1(27), 2(29), 3,5,8(28), 9,11,23,25-nonaen-18-one]
Cell Number, % of positive control [1]: 70.4%
Cell Number, Average Total Cell Number [1]: 9434
Sox17 Expression, % of positive control [1]: 59.1%
Sox17 Expression, Average Total Intensity [1]: 1.48E+08
Cell Number, Average Total Cell Number [4]: 9434
Sox17 Expression, Average Total Intensity [4]: 1.48E+08
Cell Number, % of positive control [5]: 70.4 % of positive control
Sox17 Expression, % of positive control [5]: 59.1 % of positive control
Cell Number, Average Total Cell Number [2]: 7346
Sox17 Expression, Average Total Intensity [2]: 8.90E+07
Cell Number, % of positive control [3]: 46.5 % of positive control
Sox17 Expression, % of positive control [3]: 31.2 % of positive control

CN1CCC(=O)NCCCNc2cccc(c2)-c2ncnc(n2)Nc2cccc(c2)C1 [Compound 21, 14-Methyl-3,5,7,14,18,22,29-heptaazatetracyclo[21.3.1.1˜2,6˜0.1˜8,12˜]nonacosa-1(27), 2(29), 3,5,8(28), 9,11,23,25-nonaen-17-one]
Cell Number, Average Total Cell Number [4]: 12640
Sox17 Expression, Average Total Intensity [4]: 1.65E+08
Cell Number, % of positive control [5]: 94.4 % of positive control
Sox17 Expression, % of positive control [5]: 65.9 % of positive control
Cell Number, % of positive control [6]: 94.4 % of positive control
Sox17 Expression, % of positive control [6]: 65.9 % of positive control
Sox17 Expression, Average Total Intensity [6]: 1.65E+08

O=C1CCN2CCN(CC2)Cc2cccc(c2)Nc2ncnc(n2)-c2cncc(c2)CCCN1 [Compound 23, 1,8,10,12,16,22,26,32-Octaazapentacyclo[24.2.2.1-3,7˜0.1˜9,13˜0.1˜14,18˜]tritriaconta-3(33), 4,6,9(32), 10,12,14(31), 15,17-nonaen-23-one]
Cell Number, Average Total Cell Number [4]: 12165
Sox17 Expression, Average Total Intensity [4]: 2.15E+08
Cell Number, % of positive control [5]: 90.8 % of positive control
Sox17 Expression, % of positive control [5]: 86.0 % of positive control
Cell Number, % of positive control [6]: 90.8 % of positive control
Sox17 Expression, % of positive control [6]: 86.0 % of positive control
Sox17 Expression, Average Total Intensity [6]: 2.15E+08

— patent publication US9593305B2, “Differentiation of pluripotent stem cells” (Janssen Biotech, Inc., priority 2008, dated 2017)
